For 77 compounds, IC50 results are on record in patent US20150376198A1, “MODULATORS OF VASOPRESSIN RECEPTORS WITH THERAPEUTIC POTENTIAL” (priority 2013, published 2015).

The target in one test is human Arginine Vasopressin Receptor 1a (AVPR1a) (Homo sapiens, UniProt P37288). Briefly: cell-based.
Sequence of human Arginine Vasopressin Receptor 1a (AVPR1a) (P37288 whole entry): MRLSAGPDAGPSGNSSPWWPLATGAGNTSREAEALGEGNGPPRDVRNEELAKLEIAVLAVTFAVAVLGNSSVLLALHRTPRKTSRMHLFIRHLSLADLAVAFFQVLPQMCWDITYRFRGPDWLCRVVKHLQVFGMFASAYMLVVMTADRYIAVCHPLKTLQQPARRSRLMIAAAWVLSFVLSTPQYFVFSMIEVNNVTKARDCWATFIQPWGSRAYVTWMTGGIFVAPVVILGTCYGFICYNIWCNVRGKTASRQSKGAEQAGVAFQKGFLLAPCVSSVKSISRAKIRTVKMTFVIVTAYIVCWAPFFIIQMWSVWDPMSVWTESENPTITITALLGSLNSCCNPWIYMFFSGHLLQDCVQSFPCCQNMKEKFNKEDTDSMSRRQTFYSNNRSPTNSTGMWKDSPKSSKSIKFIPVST
Conditions: not given
The IC50 is the concentration that gives 50% inhibition. As for `N#CC1(c2ccccc2)CCN(C(=O)N2CCCCc3cc(Cl)ccc32)CC1` [Compound 134], half-maximal inhibition (IC50) required 0.358 µM. The same measure, in the same setting: for `O=C(C1CCN(c2ncccc2F)CC1)N(CC1CC1)c1ccc(Cl)cc1` [Compound 140] the value was 0.015 µM.

Compound `O=C(C1CCN(c2ccc(Cl)cn2)CC1)N(CC1CC1)c1ccc(Cl)cc1` [Compound 141] yielded an IC50 of 0.04 µM. Same read-out and setting: the same measure for `O=C(C1CCN(c2ccc(F)cn2)CC1)N(CC1CC1)c1ccc(Cl)cc1` [Compound 146]: 0.024 µM. As to `Cc1ccc(N2CCC(C(=O)N(CC3CC3)c3ccc(Cl)cc3)CC2)nc1` [Compound 149], the IC50 stood at 0.02 µM.

The test is the same for the next values; noted with them: read-out: V1a-R IC50.
For `CCC(CC)C(=O)N1CCC(C(=O)N2CCCCc3cc(Cl)ccc32)CC1` [Compound 79], the IC50 stood at 5.4 µM. In the case of `Cc1noc(C)c1C(=O)N1CCC(C(=O)N2CCCCc3cc(Cl)ccc32)CC1` [Compound 80], the half-inhibitory concentration (IC50) was found to be 15.1 µM.

In the case of `O=C(C1CCN(C(=O)C23CC4CC(CC(C4)C2)C3)CC1)N1CCCCc2cc(Cl)ccc21` [Compound 81], the IC50 is 8.08 µM. Turning to `CC(C)(C)C(=O)N1CCC(C(=O)N2CCCCc3cc(Cl)ccc32)CC1` [Compound 82], the IC50 is 2.49 µM. Still for that read-out and setting: the same measure for `O=C(c1ccccc1)N1CCC(C(=O)N2CCCCc3cc(Cl)ccc32)CC1` [Compound 83]: 1.82 µM; for `O=C(c1ccccc1F)N1CCC(C(=O)N2CCCCc3cc(Cl)ccc32)CC1` [Compound 84]: 1.49 µM; for `COc1ccc(C(=O)N2CCC(C(=O)N3CCCCc4cc(Cl)ccc43)CC2)cc1` [Compound 85]: 1.78 µM. Still for that read-out and setting: for `O=C(c1ccc(Cl)cc1)N1CCC(C(=O)N2CCCCc3cc(Cl)ccc32)CC1` [Compound 86] the value was 0.835 µM; for `O=C(c1ccc(C(F)(F)F)cc1)N1CCC(C(=O)N2CCCCc3cc(Cl)ccc32)CC1` [Compound 87], 1.87 µM.

For the compound `O=C(c1cccc(C(F)(F)F)c1)N1CCC(C(=O)N2CCCCc3cc(Cl)ccc32)CC1` [Compound 88], the IC50 amounted to 0.595 µM. For the compound `O=C(c1ccc(Cl)cc1Cl)N1CCC(C(=O)N2CCCCc3cc(Cl)ccc32)CC1` [Compound 89], the IC50 stood at 1.8 µM.

With `O=C(c1ccc(F)c(F)c1)N1CCC(C(=O)N2CCCCc3cc(Cl)ccc32)CC1` [Compound 90], the IC50 came out at 1.52 µM. Same read-out and setting: the same measure for `O=C(c1cccc(F)c1F)N1CCC(C(=O)N2CCCCc3cc(Cl)ccc32)CC1` [Compound 91]: 1.86 µM; for `O=C(c1c(F)cccc1F)N1CCC(C(=O)N2CCCCc3cc(Cl)ccc32)CC1` [Compound 92]: 1.72 µM; for `O=C(c1ccncc1)N1CCC(C(=O)N2CCCCc3cc(Cl)ccc32)CC1` [Compound 93]: 5.81 µM. On the same count and under the same terms, for `O=C(C1CCN(c2ccccn2)CC1)N1CCCCc2cc(Cl)ccc21` [Compound 109] the value was 0.005 µM; for `O=C(C1CCN(c2ncccn2)CC1)N1CCCCc2cc(Cl)ccc21` [Compound 110], 0.207 µM; for `N#Cc1cccnc1N1CCC(C(=O)N2CCCCc3cc(Cl)ccc32)CC1` [Compound 111], 0.13 µM. Turning to `N#Cc1ccc(N2CCC(C(=O)N3CCCCc4cc(Cl)ccc43)CC2)nc1` [Compound 112], the IC50 turned out to be 1.23 µM. Same read-out and setting: for `N#Cc1ccc(C(=O)N2CCC(C(=O)N3CCCCc4cc(Cl)ccc43)CC2)cc1` [Compound 113] the value was 5.76 µM; for `N#Cc1ccc(C(=O)N2CCC(C(=O)N3CCCCc4cc(Cl)ccc43)CC2)c(F)c1` [Compound 114], 9.48 µM. With `N#Cc1cc(C(=O)N2CCC(C(=O)N3CCCCc4cc(Cl)ccc43)CC2)ccc1F` [Compound 115], the IC50 worked out at 5.28 µM. On to `O=C(c1cc(F)cc(F)c1)N1CCC(C(=O)N2CCCCc3cc(Cl)ccc32)CC1` [Compound 116], for which the IC50 is 1.6 µM.

For the compound `Cc1cncc(C(=O)N2CCC(C(=O)N3CCCCc4cc(Cl)ccc43)CC2)c1` [Compound 117], the IC50 stood at 1.16 µM. For `CS(=O)(=O)c1ccc(C(=O)N2CCC(C(=O)N3CCCCc4cc(Cl)ccc43)CC2)cc1` [Compound 118], the IC50 came to 12.9 µM. Take `O=C(c1csc2ccccc12)N1CCC(C(=O)N2CCCCc3cc(Cl)ccc32)CC1` [Compound 119]: the IC50 is 0.621 µM. On the same count and under the same terms, for `O=C(c1c[nH]c2ccccc12)N1CCC(C(=O)N2CCCCc3cc(Cl)ccc32)CC1` [Compound 120] the value was 0.249 µM; for `O=C(c1cc2ccccc2[nH]1)N1CCC(C(=O)N2CCCCc3cc(Cl)ccc32)CC1` [Compound 121], 0.446 µM.

As for `O=C(N1CCN(c2ccccn2)CC1)N1CCCCc2cc(Cl)ccc21` [Compound 122], the IC50 came out at 0.08 µM. With `O=C(N1CCN(c2ncccn2)CC1)N1CCCCc2cc(Cl)ccc21` [Compound 123], the IC50 was 0.256 µM. Consider `Cc1cccnc1N1CCN(C(=O)N2CCCCc3cc(Cl)ccc32)CC1` [Compound 124], for which the IC50 is 0.04 µM. On to `O=C(N1CCN(c2ncccc2Cl)CC1)N1CCCCc2cc(Cl)ccc21` [Compound 125], for which the IC50 came out at 0.057 µM. Consider `O=C(N1CCN(c2ncccc2C(F)(F)F)CC1)N1CCCCc2cc(Cl)ccc21` [Compound 126], for which the IC50 is 0.054 µM. In the case of `O=C(N1CCN(c2nccs2)CC1)N1CCCCc2cc(Cl)ccc21` [Compound 127], the IC50 worked out at 0.267 µM. Same read-out and setting: the same measure for `O=C(N1CCN(c2ccccc2)CC1)N1CCCCc2cc(Cl)ccc21` [Compound 128]: 0.027 µM. Same read-out and setting: for `O=C(N1CCN(c2cc(Cl)cc(Cl)c2)CC1)N1CCCCc2cc(Cl)ccc21` [Compound 129] the value was 0.205 µM; for `Cc1ccc(Cl)cc1N1CCN(C(=O)N2CCCCc3cc(Cl)ccc32)CC1` [Compound 130], 0.279 µM; for `O=C(N1CCC(c2ccccc2)CC1)N1CCCCc2cc(Cl)ccc21` [Compound 131], 0.083 µM. Consider `O=C(N1CCN(c2ccc(C(F)(F)F)cc2)CC1)N1CCCCc2cc(Cl)ccc21` [Compound 132], for which the IC50 is 0.029 µM.

For `O=C(N1CCC(O)(c2ccccc2)CC1)N1CCCCc2cc(Cl)ccc21` [Compound 133], the IC50 amounted to 0.137 µM. Same read-out and setting: the same measure for `O=C(N1CCN(c2ccccc2Cl)CC1)N1CCCCc2cc(Cl)ccc21` [Compound 139]: 0.035 µM; for `N#Cc1cccnc1N1CCC(C(=O)N(CC2CC2)c2ccc(Cl)cc2)CC1` [Compound 142]: 0.067 µM. On the same count and under the same terms, for `O=C(C1CCN(c2ncccc2C(F)(F)F)CC1)N(CC1CC1)c1ccc(Cl)cc1` [Compound 143] the value was 0.084 µM. Consider `O=C(C1CCN(c2ncccc2Cl)CC1)N(CC1CC1)c1ccc(Cl)cc1` [Compound 144], for which the IC50 turned out to be 0.023 µM. The same measure, in the same setting: for `O=C(C1CCN(c2ccc(C(F)(F)F)cn2)CC1)N(CC1CC1)c1ccc(Cl)cc1` [Compound 145] the value was 0.123 µM; for `Cc1cccnc1N1CCC(C(=O)N(CC2CC2)c2ccc(Cl)cc2)CC1` [Compound 147], 0.007 µM.

`Cc1ccnc(N2CCC(C(=O)N(CC3CC3)c3ccc(Cl)cc3)CC2)c1` [Compound 148]: the IC50 worked out at 0.003 µM. On the same count and under the same terms, for `Cc1cccc(N2CCC(C(=O)N(CC3CC3)c3ccc(Cl)cc3)CC2)n1` [Compound 150] the value was 0.023 µM; for `Cc1cc(C)nc(N2CCC(C(=O)N(CC3CC3)c3ccc(Cl)cc3)CC2)n1` [Compound 151], 0.008 µM.

As to `O=C(C1CCN(c2cnccn2)CC1)N(CC1CC1)c1ccc(Cl)cc1` [Compound 152], the 50% inhibitory concentration (IC50) was found to be 0.045 µM.

As for `N#Cc1ccc(N2CCC(C(=O)N(CC3CC3)c3ccc(Cl)cc3)CC2)nc1` [Compound 153], the IC50 worked out at 0.8 µM. Still for that read-out and setting: the same measure for `O=C(C1CCN(c2ccccn2)CC1)N(CC1CC1)c1ccc(Cl)cc1` [Compound 154]: 0.015 µM; for `O=C(N1CCN(c2ncc(F)cn2)CC1)N(CC1CC1)c1ccc(Cl)cc1` [Compound 155]: 0.106 µM; for `Cc1cnc(N2CCN(C(=O)N(CC3CC3)c3ccc(Cl)cc3)CC2)nc1` [Compound 156]: 0.017 µM. On the same count and under the same terms, for `O=C(N1CCN(c2ncc(Cl)cn2)CC1)N(CC1CC1)c1ccc(Cl)cc1` [Compound 157] the value was 0.206 µM. With `Cc1cc(C)nc(N2CCN(C(=O)N(CC3CC3)c3ccc(Cl)cc3)CC2)n1` [Compound 158], the IC50 worked out at 0.024 µM. With `N#Cc1cccnc1N1CCN(C(=O)N(CC2CC2)c2ccc(Cl)cc2)CC1` [Compound 159], the IC50 was found to be 0.081 µM.

As for `Cc1cccnc1N1CCN(C(=O)N(CC2CC2)c2ccc(Cl)cc2)CC1` [Compound 160], the IC50 came to 0.008 µM.

`Cc1ccnc(N2CCN(C(=O)N(CC3CC3)c3ccc(Cl)cc3)CC2)c1` [Compound 161]: the IC50 came out at 0.016 µM. Still for that read-out and setting: for `O=C(C1CCN(c2ncc(F)cn2)CC1)N1CCCCc2cc(Cl)ccc21` [Compound 162] the value was 0.035 µM. On the same count and under the same terms, for `O=C(C1CCN(c2ncc(Cl)cn2)CC1)N1CCCCc2cc(Cl)ccc21` [Compound 164] the value was 0.056 µM; for `Cc1cc(C)nc(N2CCC(C(=O)N3CCCCc4cc(Cl)ccc43)CC2)n1` [Compound 165], 0.002 µM. For the compound `Cc1cnc(N2CCC(C(=O)N(CC3CC3)c3ccc(Cl)cc3)CC2)nc1` [Compound 166], the IC50 is 0.038 µM. On the same count and under the same terms, for `O=C(C1CCN(c2ncc(Cl)cn2)CC1)N(CC1CC1)c1ccc(Cl)cc1` [Compound 167] the value was 0.195 µM; for `O=C(C1CCN(c2ncc(F)cn2)CC1)N(CC1CC1)c1ccc(Cl)cc1` [Compound 168], 0.091 µM; for `Cc1ccnc(N2CCC(C(=O)N(CC3CC3)c3ccc(Cl)cc3)CC2)n1` [Compound 169], 0.051 µM. Take `N#Cc1ccnc(N2CCC(C(=O)N(CC3CC3)c3ccc(Cl)cc3)CC2)n1` [Compound 170]: the IC50 was determined as 0.096 µM. Same read-out and setting: for `O=C(C1CCN(c2nccc(C(F)(F)F)n2)CC1)N(CC1CC1)c1ccc(Cl)cc1` [Compound 171] the value was 0.146 µM. `COc1ccnc(N2CCC(C(=O)N(CC3CC3)c3ccc(Cl)cc3)CC2)n1` [Compound 172]: the IC50 was 0.017 µM. Take `N#Cc1ccnc(N2CCC(C(=O)N(CC3CC3)c3ccc(Cl)cc3)CC2)c1` [Compound 173]: the IC50 was 0.063 µM. Same read-out and setting: the same measure for `O=C(C1CCN(c2nccc(C(F)(F)F)n2)CC1)N1CCCCc2cc(Cl)ccc21` [Compound 174]: 0.082 µM; for `COc1ccnc(N2CCC(C(=O)N3CCCCc4cc(Cl)ccc43)CC2)n1` [Compound 175]: 0.011 µM.
